Measured values published in BindingDB's records for doi:10.1124/jpet.105.084343 (University of Rochester, 2005).

Legend:
[1] = biological target: Delta-type opioid receptor (Homo sapiens, UniProt P41143)
[2] = biological target: Kappa-type opioid receptor (Homo sapiens, UniProt P41145)
[3] = biological target: Mu-type opioid receptor (Homo sapiens, UniProt P35372)
Sequence of Mu-type opioid receptor (P35372 whole entry): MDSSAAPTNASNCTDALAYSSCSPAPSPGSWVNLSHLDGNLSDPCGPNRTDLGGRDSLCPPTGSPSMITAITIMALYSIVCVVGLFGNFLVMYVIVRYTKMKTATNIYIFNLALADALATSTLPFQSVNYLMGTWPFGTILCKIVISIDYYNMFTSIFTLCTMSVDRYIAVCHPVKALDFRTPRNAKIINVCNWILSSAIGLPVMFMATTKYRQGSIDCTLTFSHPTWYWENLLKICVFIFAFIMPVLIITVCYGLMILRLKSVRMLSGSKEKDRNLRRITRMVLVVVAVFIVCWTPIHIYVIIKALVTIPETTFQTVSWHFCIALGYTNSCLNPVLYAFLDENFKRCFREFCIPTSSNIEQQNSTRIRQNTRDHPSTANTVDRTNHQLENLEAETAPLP

Sequence of Kappa-type opioid receptor (P41145 whole entry): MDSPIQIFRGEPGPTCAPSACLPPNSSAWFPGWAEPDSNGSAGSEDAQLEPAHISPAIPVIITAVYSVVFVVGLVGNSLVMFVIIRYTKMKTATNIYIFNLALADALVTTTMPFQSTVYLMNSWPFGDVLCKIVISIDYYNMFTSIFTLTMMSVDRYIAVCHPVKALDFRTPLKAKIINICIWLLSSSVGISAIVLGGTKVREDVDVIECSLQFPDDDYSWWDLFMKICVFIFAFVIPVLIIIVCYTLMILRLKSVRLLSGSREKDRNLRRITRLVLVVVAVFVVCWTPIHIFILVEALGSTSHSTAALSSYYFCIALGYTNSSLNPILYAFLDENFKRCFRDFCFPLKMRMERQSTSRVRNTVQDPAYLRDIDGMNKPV
Sequence of Delta-type opioid receptor (P41143 whole entry): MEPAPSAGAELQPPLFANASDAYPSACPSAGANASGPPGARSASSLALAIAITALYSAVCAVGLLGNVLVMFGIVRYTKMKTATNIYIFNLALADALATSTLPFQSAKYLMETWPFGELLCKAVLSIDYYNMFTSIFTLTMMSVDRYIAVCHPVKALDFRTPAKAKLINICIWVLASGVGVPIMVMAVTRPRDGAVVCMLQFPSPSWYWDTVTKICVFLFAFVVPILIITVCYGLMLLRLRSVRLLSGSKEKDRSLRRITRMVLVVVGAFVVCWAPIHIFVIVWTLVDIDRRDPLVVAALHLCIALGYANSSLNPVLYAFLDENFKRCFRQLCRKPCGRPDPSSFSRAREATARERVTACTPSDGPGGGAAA

Row | Compound | Ki [1] [µM] | Ki [2] [nM] | Ki [3] [nM]
1 | O=C(/C=C/C(=O)Oc1ccc2c(c1)[C@]13CCCCC1[C@H](C2)N(CC1CCC1)CC3)Oc1ccc2c(c1)[C@]13CCCCC1[C@H](C2)N(CC1CCC1)CC3 (some centres undefined) [MCL-145] | 9.4 | 78 | 200
2 | Oc1ccc2c(c1)[C@@]13CCCC[C@H]1C(C2)N(CC1CCC1)CC3 [MCL-101] |  | 79 | 
